For this assay, the system named is apolipoprotein E-deficient mice. Kind of assay: Determination of areas of pathological changes appearing in the aorta (atherosclerotic lesions and macrophage area in the aortic valve). It is filed as in vivo. Conditions: male apolipoprotein E-deficient mice, compounds mixed with diet (Compound A 0.03 w/w %, Compound B 0.0001 w/w %) for 12 weeks, average ± standard error; for Rate of area occupied with macrophage: anti-MOMA-2 positive area relative to lesion area. An excerpt: Determination of Areas of Pathological Changes Appearing in the Aorta
Male apolipoprotein E-deficient mice of 12 weeks of age were divided into 4 groups (10 mice per a group) as follows: control group, group treated with 5-[4-(6-methoxy-1-methylbenzimidazol-2-yl-methoxy)benzyl]thiazolidine-2,4-dione hydrochloride (mixed with diet at a concentration of 0.0001 w/w %, hereinafter referred to as Compound B), group treated with N-(1-octyl-5-carboxymethyl-4,6-dimethylindolin-7-yl)-2,2-dimethylpropanamide hemisulfate (mixed with diet at a concentration of 0.03 w/w %, hereinafter referred to as Compound A), and co-administration group of Compound B (mixed with diet at a concentration of 0.0001 w/w %) and Compound A (mixed with diet at a concentration of 0.03 w/w %). All mice were treated with compounds mixed with diet except the control group for 12 successive weeks. The mice were autopsied in the 12th week and the area of atherosclerotic lesions in the aortic valve and the ratio of the area occupied by macrophages in the same area (positively stained area with anti-MOMA-2) were determined.
(1) Areas of Atherosclerotic Lesions in the Aorta
The aortic valve was stained with elastic-Masson and the area of atherosclerotic lesions in the aortic valve determined. Less-stained areas indicate greater inhibitory effects of the agents on the atherosclerotic lesions as well as suppressive action of the agents against progressive development of atherosclerotic lesions in the aorta.
(2) Rate of Area Occupied by Macrophages
Macrophages in the aortic valve were detected by staining with anti-MOMA-2. Areas occupied by macrophages in the aortic valve were determined and the ratio of the area occupied by macrophages (positively stained areas with anti-MOMA-2) to the area of atherosclerotic lesions in the aortic valve was calculated.
Macrophages are a factor to make plaques unstable. Thus decreases in macrophage accumulation increase plaque stability and are related to amelioration of the atherosclerotic lesions.
The actual measurement value in Table 1 indicates average ± standard error.

`COc1ccc2nc(COc3ccc(CC4SC(=O)NC4=O)cc3)n(C)c2c1.Cl` (stereo not drawn) [Compound B, 5-[4-(6-methoxy-1-methylbenzimidazol-2-yl-methoxy)benzyl]thiazolidine-2,4-dione hydrochloride]: the “Rate of area occupied with macrophage” value stood at 23.3 ± 4.1%. Further, the “Area of atherosclerotic lesions” value (elastic-Masson stain) turned out to be 80616 ± 11611 μm^2.

For “N-(1-octyl-5-carboxymethyl-4,6-dimethylindolin-7-yl)-2,2-dimethylpropanamide hemisulfate [Compound A]”, the “Rate of area occupied with macrophage” value was determined as 13.7 ± 2.2%.

Values taken from US20050119314A1, “Pharmaceutical composition comprising an ACAT inhibitor and an insulin resistance reducing agent” (SANKYO COMPANY, LIMITED, priority 2002, published 2005).
